Experimental data as given in patent US11052101B2, “Methods for treating cancer using purine analogs by depleting intracellular ATP” (National Guard Health Affairs, priority 2019, dated 2021).
“Also recorded” adds a separate entry of the source.

Key:
[1] = system: primary CLL cells; test: Western blotting / immunoblotting of apoptosis markers (cleaved PARP, caspases); format: cell-based, human; conditions: for cleaved PARP (apoptosis marker), western blot: 3 uM isoproterenol, 24 hr, IBMX positive control; for apoptosis by immunoblotting with apoptotic markers: 30 uM isoproterenol 12 hrs pre-treatment, 10 uM fludarabine 48 hr
Experimental: Cell death markers for apoptosis (cleaved PARP, cleaved caspase 3 and caspase 9) and autophagy (accumulation of LC3 II) were assessed by western blotting.
[…] Cells were then harvested and examined by immunoblotting with apoptotic markers Cleaved PARP and caspace 9.
Control primary CLL cells ([…]), 10 uM fludarabine (Flud), a combination of both drugs at these concentrations (Flud/Iso), 0.5 uM doxorubicin (Dodo), a combination of 0.5 uM doxorubicin and 30 uM isoproterenol (Dodo/Iso), 0.5 uM mitoxantrone, and a combination of 0.5 uM mitoxantrone and 30 uM isoproterenol and incubated. Cells were than harvested and examined by immunoblotting with the indicated apoptotic markers.

[2] = system: p-CREB; test: Human phosphokinase array; format: cell-based; conditions: 20 μM for 24 hours, compared to untreated
Experimental: Samples of primary CLL cells were treated in vitro with 20 μM isoproterenol for 24 hours in a human phosphokinase array. In the array each kinase was spotted in duplicate with hybridization signals at the corners serving as controls. Relative levels of protein phosphorylation (normalized intensity for each antibody) were calculated for each untreated and treated sample.

[3] = system: P53
[4] = system: primary CLL cells; test: Isoproterenol-induced intracellular cAMP accumulation; format: cell-based, human; conditions: IBMX pre-treatment one hour, then 10 uM for 24 hr; CLL cells compared to normal cells
Experimental: Isoproterenol-induced intracellular cAMP accumulation in normal PBMCs and primary CLL cells was assessed. Cell samples were pre-treated for one hour with phosphodiesterase inhibitor (IBMX) and then with 10 uM isoproterenol for 24 hr.

[5] = system: primary CLL cells; format: cell-based
Experimental: (§1) To assess viability of the treated cells, cells were stained by propidium iodide and analyzed by flow cytometry.
(§2) The PI/flow cytometry assay assesses cell viability using propidium iodide (PI) which is a membrane impermanent dye that is generally excluded from viable cells. It binds to double stranded DNA by intercalating between base pairs.
Primary CLL cells were isolated from three CLL patients and were exposed 10 uM fludarabine (a purine analog) alone or in combination with 30 uM isoproterenol to assess the effects of the drug(s) on cytotoxicity and growth. Induced cell death was assessed by PI staining and flow cytometry.
After 24 hours treatment, the treated cells were stained with the cell-death marker, propidium iodide and analyzed with flow-cytometry to determine % induced cell death.

[6] = system: primary CLL cells; test: CellTiter-Glo ATP-based luminescent assay, intracellular ATP depletion; format: cell-based, human; conditions: for intracellular ATP depletion (luminescence), dose-response: gradient of concentrations, 1 to 20 μM
Experimental: Primary CLL cells were treated with 3 uM isoproterenol (IC50 determined with Cell-titer Glo® assay) for 24 hr. Cell death markers for apoptosis (cleaved PARP, cleaved caspase 3 and caspase 9) and autophagy (accumulation of LC3 II) were assessed by western blotting. The […] phosphodiesterase inhibitor, IBMX, was used as a positive control because it induces apoptosis in CLL B cells.
CellTiter-Glo® Luminescent Cell Viability Assay is a homogeneous method for determining the number of viable cells in culture based on quantitation of the ATP present, an indicator of metabolically active cells.
ATP depletion in CLL cells was measured by the ATP-based luminescent assay CellTiter-Glo®.
Isoproterenol-induced intercellular ATP depletion was determined by the ATP-based luminescent assay CellTiter-Glo®. The efficiency of isoproterenol in depleting intracellular ATP is represented by the dose response curves shown by FIGS. 3B, 3D and 3F respectively.

[7] = system: normal PBMCs; test: Induced cell death by propidium iodide staining and flow cytometry; format: cell-based, human; conditions: 3 uM
Experimental: as §1, §2
Cells from CLL, AML, and from normal donors were treated with 30 μM isoproterenol, 10 μM fludarabine, or a mixture of both drugs at these concentrations as shown by FIGS. 3A, 3C and 3E respectively.

[8] = system: CLL primary cells; test: MTT (ATP independent) cell viability assay; format: cell-based, human; conditions: gradient of concentrations
Excerpt: The two assays gave completely different dose-response curves.

Structure (SMILES) | cleaved PARP (apoptosis marker), western blot [1] | apoptosis by immunoblotting with apoptotic markers [1] | apoptosis, cleaved PARP (relative pixel density) ([1]; 30 uM isoproterenol, 10 uM fludarabine) | phosphorylation of p-CREB [2] | p53 expression [3] | intracellular cAMP accumulation [4] | cell death, PI staining / flow cytometry ([5]; 3 uM) | cell death, ATP-independent assay (solid line FIG. 1C) ([5]; 1 to 20 μM) | intracellular ATP depletion ([6]; 1 μM) | depletion of intracellular ATP ([6]; 30 μM for 12 hours) | sensitivity to isoproterenol induced intracellular ATP depletion ([6]; CLL primary cells compared with other leukemia subtypes and normal PBMCs) | IC50 ([6]; Homo sapiens, CLL cell, primary CLL cells, read-out: IC50 determined with Cell-titer Glo assay) | intracellular ATP depletion (luminescence), dose-response [6] | intracellular ATP depletion (luminescence), dose-response ([6]; listed as Iso) | sensitivity to isoproterenol (ATP depletion) ([6]; primary CLL cells from a CLL patient at early stage) | cell death, PI staining / flow cytometry [7] | cell death by MTT assay [8]
CC(C)Cn1c(=O)n(C)c(=O)c2[nH]cnc21 [IBMX] | presence of cleaved PARP | – | – | – | – | – | – | – | – | – | – | – | – | – | – | – | –
Nc1nc(F)nc2c1ncn2[C@@H]1O[C@H](CO)[C@@H](O)[C@@H]1O [fludarabine, Fludarabine] | – | Apoptosis was observed | induced apoptosis | – | – | – | – | – | – | – | – | – | – | – | – | – | –
CC(C)NCC(O)c1ccc(O)c(O)c1 (stereo not shown) [isoproterenol, Isoproterenol] | no cleaved PARP | Apoptosis was not observed | – | only significantly up-regulated kinase | doesn't induce any increase in p53 expression | significantly higher accumulation of cAMP | did not induce any significant cell death | did not induce cell death | weak intracellular ATP depletion | more than 80% | highest sensitivity | 3 µM | increased intracellular ATP depletion; also recorded: dose-dependent decrease in luminescence | induces intracellular ATP depletion | lesser sensitivity | did not induce any significant cell death | doesn't induce cell death
